Measurements published in patent US9085602B1, “Facial amphiphiles and methods of use” (The Scripps Research Institute, priority 2008, dated 2015).
“And” between values parts separate entries of the source, which are not always exact repeats. Equal values may be shown once. Read-outs that look alike come from different tables or passages of the source.

What was measured:
[1] = Hydrodynamic radius of detergent micelles (DynaPro/Titan instrument); format: physicochemical; conditions: measured at a concentration of 0.03% in water
bacteriorhodopsin (BR) = target: T1, bacteriorhodopsin (BR) (Halobacterium salinarum, UniProt P02945); assay: Stabilization of bacteriorhodopsin followed by UV-Vis absorption; parameters: species or system Halobacterium halobium; conditions: for stability of BR stored in the detergent: pH 5.6, RT, A1 for more than 5 months
T1 construct: BR was isolated from purple membrane of Halobacterium halobium (strain S9); endogenous in cells; host or cells: Halobacterium halobium strain S9, purple membrane
T1 sequence (P02945 14-262): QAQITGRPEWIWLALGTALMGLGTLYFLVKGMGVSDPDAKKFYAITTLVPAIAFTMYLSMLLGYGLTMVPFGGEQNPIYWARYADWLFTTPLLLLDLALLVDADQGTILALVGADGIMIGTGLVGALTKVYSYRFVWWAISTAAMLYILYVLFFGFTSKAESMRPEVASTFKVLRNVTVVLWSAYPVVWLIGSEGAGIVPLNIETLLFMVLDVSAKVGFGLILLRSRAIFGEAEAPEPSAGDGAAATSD
Description: BR has a characteristic adsorption at visible wavelength (λmax: ˜550 nm in detergents) due to the bound retinal ligand in the interior of the transmembrane region, serving as an excellent system for the testing of designed amphiphiles.
BR was isolated from purple membrane of Halobacterium halobium (strain S9) and purified in 1.2% β-octyl-glycoside (OG) as reported in literature (Landau, E. M.; Rosenbusch, J. P. Proc. Natl. Acad. Sci. USA 1996, 93, 14532-5). […] After several dilution-concentration cycles, the final OG concentration was <1% of its CMC (0.53%). […] The UV-Vis absorption spectra of BR samples were recorded on a DXT880 multiplate spectrofluorimeter (Beckman Coulter).

[2] = Critical micelle concentration (CMC) by ANS fluorescence dye binding; format: physicochemical; conditions: in water at 25° C.
Protocol: See De Vendittis et al., Anal. Biochem. 1981, 115, 278-86. The molecule ANS has a weak fluorescence in detergent concentrations below CMC, but becomes highly fluorescent when incorporated into the hydrophobic micellar environment. […] The emission fluorescence intensities at 465 nm were recorded (λex=405 nm) on a DXT880 multiplate spectrofluorimeter (Beckman Coulter). The CMC is defined as the breakpoint in the fluorescence (FIG. 4).
See also De Vendittis et al., Anal. Biochem. 1981, 115, 278-86.

MsbA [3] = target: T2, MsbA (Salmonella typhimurium, UniProt P63359); assay: Small-angle x-ray scattering of MsbA in detergent; conditions: separation of PDC signal from empty micelles
T2 sequence (P63359 whole entry): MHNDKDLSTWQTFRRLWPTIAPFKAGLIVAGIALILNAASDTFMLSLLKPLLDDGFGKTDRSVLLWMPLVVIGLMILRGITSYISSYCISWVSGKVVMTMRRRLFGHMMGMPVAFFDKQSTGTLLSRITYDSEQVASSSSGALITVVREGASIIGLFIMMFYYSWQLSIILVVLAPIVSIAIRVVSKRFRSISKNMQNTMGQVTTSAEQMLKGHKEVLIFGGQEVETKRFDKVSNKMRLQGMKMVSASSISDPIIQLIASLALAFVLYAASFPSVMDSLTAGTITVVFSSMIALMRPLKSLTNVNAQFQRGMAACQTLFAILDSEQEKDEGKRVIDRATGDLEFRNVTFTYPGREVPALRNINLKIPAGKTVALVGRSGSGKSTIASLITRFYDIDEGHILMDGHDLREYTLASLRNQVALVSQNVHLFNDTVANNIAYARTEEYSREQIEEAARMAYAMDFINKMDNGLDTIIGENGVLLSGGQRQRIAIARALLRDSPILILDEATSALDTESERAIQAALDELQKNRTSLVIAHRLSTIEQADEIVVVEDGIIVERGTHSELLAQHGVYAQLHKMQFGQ
Description: The facial amphiphiles self-assemble to smaller micelles and form smaller protein-detergent complexes (PDCs) than the conventional detergents. Because of these unique properties, facial amphiphiles can be used for SAX (small-angle x-ray scattering) studies of integral membrane proteins. A major challenge for applying SAXS to membrane protein structural analysis is the need to separate the scattering signal of the PDC from that of the empty micelles. With conventional head-to-tail detergents, it is difficult to achieve this goal because of the presence of the large detergent micelles and the characteristic second peak in the scattering intensity. Remarkably, the facial amphiphiles described herein allow one to separate the scattering signal of the PDC from that of the empty micelles.

cytochrome c oxidase ba3 = target: T3, cytochrome c oxidase ba3 (Thermus thermophilus, UniProt P82543+Q5SJ79+Q5SJ80); assay: Crystallization of cytochrome c oxidase ba3 by detergent exchange from β-DDM; conditions: pure detergent
T3 sequence (Q5SJ79 1-562): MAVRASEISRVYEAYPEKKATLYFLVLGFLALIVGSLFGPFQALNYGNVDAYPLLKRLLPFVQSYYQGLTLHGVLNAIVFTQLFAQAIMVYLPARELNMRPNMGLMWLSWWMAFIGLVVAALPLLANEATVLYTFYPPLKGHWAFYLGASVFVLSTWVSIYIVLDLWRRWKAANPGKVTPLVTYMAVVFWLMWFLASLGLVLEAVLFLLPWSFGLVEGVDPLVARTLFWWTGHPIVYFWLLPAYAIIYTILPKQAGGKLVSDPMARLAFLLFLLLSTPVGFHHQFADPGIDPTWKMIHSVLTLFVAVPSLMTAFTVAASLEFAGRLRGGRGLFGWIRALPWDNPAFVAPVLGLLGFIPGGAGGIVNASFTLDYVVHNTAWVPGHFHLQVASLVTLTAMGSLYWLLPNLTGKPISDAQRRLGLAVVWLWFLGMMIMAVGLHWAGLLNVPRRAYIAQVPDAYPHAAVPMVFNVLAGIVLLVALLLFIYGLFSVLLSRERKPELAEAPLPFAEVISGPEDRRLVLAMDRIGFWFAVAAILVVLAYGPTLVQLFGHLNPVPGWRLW
T3 sequence (Q5SJ80 1-168): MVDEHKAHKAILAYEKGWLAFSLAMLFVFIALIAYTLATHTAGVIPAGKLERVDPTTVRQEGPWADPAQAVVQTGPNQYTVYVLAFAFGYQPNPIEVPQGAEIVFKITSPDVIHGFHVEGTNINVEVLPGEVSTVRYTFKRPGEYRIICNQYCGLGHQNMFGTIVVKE
T3 sequence (P82543 1-34): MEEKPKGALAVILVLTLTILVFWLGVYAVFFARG
Protocol: The facial amphiphiles were evaluated in the crystallization of cytochrome c oxidase ba3 by detergent exchange from β-DDM. Several new crystal forms were obtained depending on which detergent was used, albeit in less than optimal diffraction quality (>6 Å). […] Crystals of human connexin 26 have also been obtained using the purely facial amphiphiles described herein.

[4] = known detergents, comparison values; cited from earlier work
[5] = target: T4, MsbA from S. typhimurium (ST-MsbA) (Salmonella typhimurium, UniProt P63359); assay: Linked enzyme ATPase assay of detergent-solubilized MsbA (activity and stability); format: biochemical
T4 construct: made in house
T4 sequence (P63359 whole entry): as the sequence (P63359 whole entry) above
Protocol: The purified protein in the candidate detergent was assayed for activity by a standard linked enzyme ATPase assay to probe the protein stability.
MsbA was prepared from S. typhimurium as described previously (Reyes, C. L.; Chang, G. Acta Crystallograph Sect. F Struct. Biol. Cryst. Commun. 2005, 61, 655-8). […] The supernatant after centrifugation at 200,000 g for 45 min was subjected to Ni-affinity column for purification. The protein extraction and purity was evaluated by SDS-PAGE. MsbA was further purified by anion-exchange chromatography and desalting column for the stability evaluation which was followed by ATPase activity measurement.
ATPase activity was measured using an ATP-regenerating system described by Vogel and Steinhart (Biochemistry 1976, 15, 208-16), and modified by Urbatsch et al. (J. Biol. Chem. 1995, 270, 19383-90). Briefly, 1-2 μg of detergent solubilized MsbA was added to 100 μL of Linked Enzyme (LE) buffer at 37° C. containing 10 mM ATP, 12 mM MgCl2, 6 mM phosphoenolpyruvate (PEP), 1 mM NADH, 10 units of lactate dehydrogenase (LDH), 10 units of pyruvate kinase (PK), and 50 mM Tris-HCl (pH 7.5). ATP hydrolysis was measured as the decrease in absorbance of NADH at 340 nm using a DXT880 multiplate spectrofluorimeter (Beckman-Coulter). ATPase activity was calculated using the following equation: […], where ΔOD is the change in optical density and […].

MsbA [6] = target: T2, MsbA; assay: Detergent binding measurement using glycosidic colorimetric assay; parameters: made in house; species or system S. typhimurium; conditions: MsbA fractions from chromatography

In the case of `CCC[C@@H](C)[C@H]1CC[C@H]2[C@@H]3[C@H](O[C@@H]4OC(CO)[C@@H](O[C@H]5OC(CO)[C@@H](O)[C@H](O)C5O)[C@H](O)C4O)C[C@@H]4CCCC[C@]4(C)[C@H]3C[C@H](O[C@@H]3OC(CO)[C@@H](O[C@H]4OC(CO)[C@@H](O)[C@H](O)C4O)[C@H](O)C3O)[C@]12C` (stereo partly drawn) [Compound A1, 7α,12α-Di-(O-β-D-maltosyl)-cholane], the “hydrodynamic radius of the micelle” value [1] is reported as 3.0-3.1 nm and 3.0 nm, the melting point is reported as 188 to 190 °C and the “UV-vis spectral change of bacteriorhodopsin sample” value (bacteriorhodopsin (BR); over the course of almost one year) is reported as “no observable UV-vis spectral change”. For the same molecule, the “stability of BR stored in the detergent” value (bacteriorhodopsin (BR)) was “remained completely stable”, the CMC [2] was 0.1 mM and the CMC ([2]; ANS fluorescence assay) was 0.01%.

For `CCC[C@@H](C)[C@H]1CC[C@H]2[C@@H]3[C@H](OCCO[C@@H]4OC(CO)[C@@H](O[C@H]5OC(CO)[C@@H](O)[C@H](O)C5O)[C@H](O)C4O)C[C@@H]4CCCC[C@]4(C)[C@H]3C[C@H](OCCO[C@@H]3OC(CO)[C@@H](O[C@H]4OC(CO)[C@@H](O)[C@H](O)C4O)[C@H](O)C3O)[C@]12C` (stereo partly drawn) [Compound A2, 7α,12α-Di-((O-β-D-maltosyl)-2-hydroxyethoxy)-cholane], the “hydrodynamic radius of the micelle” value [1] was 2.7 nm and the CMC ([2]; ANS fluorescence assay) was 0.01%.

In the case of `CCC[C@@H](C)[C@H]1CC[C@H]2[C@@H]3[C@H](OCCO[C@@H]4OC(CO)[C@@H](O[C@H]5OC(CO)[C@@H](O)[C@H](O)C5O)[C@H](O)C4O)C[C@@H]4C[C@H](O)CC[C@]4(C)[C@H]3C[C@H](OCCO[C@@H]3OC(CO)[C@@H](O[C@H]4OC(CO)[C@@H](O)[C@H](O)C4O)[C@H](O)C3O)[C@]12C` (stereo partly drawn) [Compound B1, 3α-hydroxyl-7α,12α-Di-((O-β-D-maltosyl)-2-hydroxyethoxy)-cholane], the “hydrodynamic radius of the micelle” value [1] is reported as 2.2 nm, the CMC ([2]; ANS fluorescence assay) is reported as 0.02% and the “SAXS of MsbA prepared in the presence of the detergent” value (MsbA [3]) is reported as “Favorable results”.

For `CCC[C@@H](C)[C@H]1CC[C@H]2[C@@H]3[C@H](OCCO[C@@H]4OC(CO)[C@@H](O)[C@H](O)C4O)C[C@@H]4C[C@H](O)CC[C@]4(C)[C@H]3C[C@H](OCCO[C@@H]3OC(CO)[C@@H](O)[C@H](O)C3O)[C@]12C` (stereo partly drawn) [Compound B2, 3α-hydroxyl-7α,12α-Di-((O-D-glucosyl)-2-hydroxyethoxy)-cholane], the CMC ([2]; ANS fluorescence assay) was 0.013%.

With `CCCCCCCCCCCCO[C@@H]1O[C@H](CO)[C@@H](O[C@H]2O[C@H](CO)[C@@H](O)[C@H](O)[C@H]2O)[C@H](O)[C@H]1O` [DDM, dodecyl-β-D-maltoside, reference compound] the “hydrodynamic radius of the micelle” value [1] was 3.3-3.4 nm and the “crystallizability of cytochrome c oxidase ba3” value (cytochrome c oxidase ba3) was “not crystallizable”.

For `CCCCCCCCO[C@@H]1O[C@H](CO)[C@@H](O)[C@H](O)[C@H]1O` [OG, octyl-β-D-glucoside, reference compound], the CMC [4] is listed as 0.53% and the “stability of BR stored in the detergent” value (bacteriorhodopsin (BR)) is listed as “gradually denatured”.

With `CCCCCCCCCCCO[C@@H]1O[C@H](CO)[C@@H](O[C@H]2O[C@H](CO)[C@@H](O)[C@H](O)[C@H]2O)[C@H](O)[C@H]1O` [β-UDM, Undecyl-β-D-maltoside] the “loss of ATPase activity of MsbA” value ([5]; RT, in 2 days) was “more than 70%”, the “ATPase activity of S. typhimurium MsbA, comparison of detergents” value ([5]; compared with β-UDM and 24 commercial detergents) was “highest ATPase activity among all 24 commercial detergents tested” and the “MsbA stability in the detergent (protein solution, ATPase activity)” value ([5]; followed for more than a week at RT (about 23° C.)) was “collapsed to form visible aggregates”. The “initial ATPase activity” value ([5]; freshly purified MsbA in the detergent, 37° C.) was 1.19±0.03 μmol ATP·min^−1·mg^−1 and the detergent binding ratio (MsbA [6]) was 219±13 mol/mol MsbA.
